According to patent US20220015365A1, “SYNERGISTIC HERBICIDE COMPOSITION OF BROAD-SPECTRUM FOR THE CONTROL OF WEEDS IN AGRICULTURAL CULTURES, USE OF SUCH COMPOSITION FOR PREPARATION OF PRODUCT, PRODUCT AND METHOD OF APPLICATION” (priority 2018, published 2022):

How the values were obtained:
Brachiaria decumbens = assay: Pre-emergence weed control in soil prepared with weed seeds, synergy by Colby equation; format: in vivo; conditions: 35 days after application
Procedure: (§1) Protocol: in soil prepared with weed seeds (without germination), the composition of the present invention was applied. This test was performed for two species of weeds: Brachiaria decumbens and Panicum maximum. Data were collected 35 days after application of the composition to the soil and calculated. […] Colby equation: to use Colby's approach to evaluate synergy or antagonism in combinations, the components of the combination should be tested individually in their concentration of components in the same study as the combination. The results observed for the combination are compared with the expected results of the Colby Equation (Colby, 1967). Note that this equation is derived from the definition of the probability of independence. […] […].2. Criteria of the analysis: • If the value observed is higher than expected (Obs>E): synergy; • If the value observed is lower than expected (Obs<E): antagonism.

Panicum maximum = assay: as above; format: in vivo; conditions: 35 days after application
Procedure: as §1

## C#CCN1C(=O)COc2cc(F)c(N3C(=O)C4=C(CCCC4)C3=O)cc21 [Flumioxazin, N-(7-Fluor-3,4-dihydro-3-oxo-4-prop-2-inyl-2H-1,4-benzoxazin-6-yl)cyclohex-1-en-1,2-dicarboximide]
Brachiaria decumbens; Flumioxazin 47.60 g ai/ha
  Control % BRADC Observed: 81.25%
Brachiaria decumbens; Flumioxazin 103.10 g ai/ha
  Control % BRADC Observed: 83.75%
Brachiaria decumbens; Flumioxazin 176.80 g ai/ha
  Control % BRADC Observed: 92.75%
Brachiaria decumbens; Flumioxazin 380.00 g ai/ha
  Control % BRADC Observed: 90.00%
Panicum maximum; Flumioxazin 24.75 g ai/ha
  Control % PANMA Observed: 81.25%
Panicum maximum; Flumioxazin 33.00 g ai/ha
  Control % PANMA Observed: 88.75%
Panicum maximum; Flumioxazin 47.60 g ai/ha
  Control % PANMA Observed: 89.50%
Panicum maximum; Flumioxazin 63.46 g ai/ha
  Control % PANMA Observed: 97.00%
Panicum maximum; Flumioxazin 103.10 g ai/ha
  Control % PANMA Observed: 98.75%
Panicum maximum; Flumioxazin 137.50 g ai/ha
  Control % PANMA Observed: 97.50%
Panicum maximum; Flumioxazin 176.80 g ai/ha
  Control % PANMA Observed: 97.55%
Panicum maximum; Flumioxazin 235.70 g ai/ha
  Control % PANMA Observed: 99.00%
Panicum maximum; Flumioxazin 380.00 g ai/ha
  Control % PANMA Observed: 97.50%
Panicum maximum; Flumioxazin 507.70 g ai/ha
  Control % PANMA Observed: 98.75%

## CC(C)c1nn(C(=O)NC(C)(C)C)c(=O)n1N [Amicarbazone, 4-Amino-N-(tert-butyl)-3-isopropyl-5-oxo-4,5-dihydro-1H-1,2,4-triazole-1-carboxamide]
Brachiaria decumbens; Amicarbazone 238.00 g ai/ha
  Control % BRADC Observed: 52.50%
Brachiaria decumbens; Amicarbazone 442.00 g ai/ha
  Control % BRADC Observed: 66.25%
Brachiaria decumbens; Amicarbazone 515.60 g ai/ha
  Control % BRADC Observed: 62.50%
Brachiaria decumbens; Amicarbazone 571.15 g ai/ha
  Control % BRADC Observed: 77.50%
Panicum maximum; Amicarbazone 238.00 g ai/ha
  Control % PANMA Observed: 83.25%
Panicum maximum; Amicarbazone 317.30 g ai/ha
  Control % PANMA Observed: 75.00%
Panicum maximum; Amicarbazone 442.00 g ai/ha
  Control % PANMA Observed: 0.00%
Panicum maximum; Amicarbazone 515.60 g ai/ha
  Control % PANMA Observed: 90.00%
Panicum maximum; Amicarbazone 571.15 g ai/ha
  Control % PANMA Observed: 91.25%
Panicum maximum; Amicarbazone 589.30 g ai/ha
  Control % PANMA Observed: 90.00%
Panicum maximum; Amicarbazone 594.00 g ai/ha
  Control % PANMA Observed: 86.25%
Panicum maximum; Amicarbazone 687.50 g ai/ha
  Control % PANMA Observed: 95.00%
Panicum maximum; Amicarbazone 761.54 g ai/ha
  Control % PANMA Observed: 98.25%
Panicum maximum; Amicarbazone 792.00 g ai/ha
  Control % PANMA Observed: 88.75%
